By IC50 is commonly meant the concentration that inhibits the measured activity by half.

Our source for the IC50 values is US9580449B2, “Compositions and methods for the production of pyrimidine and pyridine compounds with BTK inhibitory activity” (Merck Patent GmbH, priority 2011, dated 2017).

Sequence of full-length human BTK (Q06187 whole entry): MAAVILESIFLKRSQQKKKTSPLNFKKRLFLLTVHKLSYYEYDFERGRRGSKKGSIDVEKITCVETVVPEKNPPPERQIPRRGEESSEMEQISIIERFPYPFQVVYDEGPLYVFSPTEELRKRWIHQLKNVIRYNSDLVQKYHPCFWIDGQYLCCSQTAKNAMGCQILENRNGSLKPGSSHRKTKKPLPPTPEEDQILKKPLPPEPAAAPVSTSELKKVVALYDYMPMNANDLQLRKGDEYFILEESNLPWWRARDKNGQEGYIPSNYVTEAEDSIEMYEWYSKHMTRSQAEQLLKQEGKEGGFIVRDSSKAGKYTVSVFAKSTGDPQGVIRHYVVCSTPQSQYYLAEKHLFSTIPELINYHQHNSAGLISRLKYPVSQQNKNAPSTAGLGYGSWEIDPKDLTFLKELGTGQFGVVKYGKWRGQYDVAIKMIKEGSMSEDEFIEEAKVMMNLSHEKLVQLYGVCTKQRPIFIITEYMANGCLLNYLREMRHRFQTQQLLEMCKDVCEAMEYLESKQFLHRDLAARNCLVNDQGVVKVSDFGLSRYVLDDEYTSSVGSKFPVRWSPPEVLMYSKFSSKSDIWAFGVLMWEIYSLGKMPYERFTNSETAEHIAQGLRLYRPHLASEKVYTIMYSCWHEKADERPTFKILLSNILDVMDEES

One experiment addresses full-length human BTK (Homo sapiens (Human), UniProt Q06187). Put plainly: BTK IC50 enzyme assay (microfluidic off-chip mobility shift kinase assay). The format is biochemical. The settings on record: incubated for 90 min. at 27 C; read-out: Time Dependent BTK Enzyme Assay IC50. The essentials: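 Off-chip microfluidic mobility shift assay on full-length human BTK; substrate-to-product conversion measured by charge/mass separation of phosphorylated peptide after reaction stop.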
In the case of `C=CC(=O)N1CCC(CNc2ncnc(N)c2-c2ccc(Oc3ccccn3)cc2)CC1` [A335, 1-(4-(((6-amino-5-(4-(pyridin-2-yloxy)phenyl)pyrimidin-4-yl)amino)methyl)piperidin-1-yl)prop-2-en-1-one], the IC50 is less than 1 µM.

Take `Nc1ncnc(NCC2CCN(c3cccc(Cl)n3)CC2)c1-c1ccc(Oc2ccccc2)cc1` [A337, N4-((1-(6-chloropyridin-2-yl)piperidin-4-yl)methyl)-5-(4-phenoxyphenyl)pyrimidine-4,6-diamine]: the IC50 is more than 1 µM.

On to `C=CC(=O)N1CCC(COc2ncnc(N)c2-c2ccc(Oc3ccccc3)cc2)CC1` [A338, 1-(4-(((6-amino-5-(4-phenoxyphenyl)pyrimidin-4-yl)oxy)methyl)piperidin-1-yl)prop-2-en-1-one], for which the IC50 was less than 1 µM.

For the compound `C=CC(=O)Nc1cccc(Oc2ncnc(N)c2-c2cc(F)c(OCc3ccccc3)cc2F)c1` [A339, N-(3-((6-amino-5-(4-(benzyloxy)-2,5-difluorophenyl)pyrimidin-4-yl)oxy)phenyl)acrylamide], the IC50 was less than 0.1 µM.

`CC#CC(=O)Nc1cccc(Oc2ccnc(N)c2-c2ccc(Oc3ccccc3)cc2)c1` [A340, N-(3-((2-amino-3-(4-phenoxyphenyl)pyridin-4-yl)oxy)phenyl)but-2-ynamide]: the IC50 was less than 0.1 µM.

For `Nc1ncnc(Oc2cccc(NC(=O)CCl)c2)c1-c1ccc(Oc2ccccc2)cc1` [A342, N-{3-[6-Amino-5-(4-phenoxy-phenyl)-pyrimidin-4-yloxy]-phenyl}-2-chloroacetamide], the IC50 is less than 0.1 µM.

Take `C=CC(=O)Nc1cccc(Oc2ncnc(N)c2-c2ccc(OCc3ccc(F)cc3)cc2)c1` [A344, N-(3-{6-Amino-5-[4-(4-fluoro-benzyloxy)-phenyl]-pyrimidin-4-yloxy}-phenyl)-acrylamide]: the IC50 was less than 0.1 µM.

For `Nc1ncnc(Oc2cccc(NC(=O)CCl)c2)c1-c1ccc(OCc2cccc(F)c2)cc1` [A345, N-(3-{6-Amino-5-[4-(3-fluoro-benzyloxy)-phenyl]-pyrimidin-4-yloxy}-phenyl)-2-chloro-acetamide], the IC50 is less than 0.1 µM.

Turning to `CCC(=O)Nc1cccc(Oc2ncnc(N)c2-c2ccc(OCc3ccccc3)cc2)c1` [A346, N-{3-[6-Amino-5-(4-benzyloxy-phenyl)-pyrimidin-4-yloxy]-phenyl}-propionamide], the IC50 is less than 0.1 µM.

In the case of `Nc1ncnc(Oc2cccc(NC(=O)CCl)c2)c1-c1ccc(OCc2ccccc2)cc1` [A347, N-{3-[6-Amino-5-(4-benzyloxy-phenyl)-pyrimidin-4-yloxy]-phenyl}-2-chloro-acetamide], the IC50 was less than 0.1 µM.

As for `C=CC(=O)Nc1cccc(Oc2ncnc(N)c2-c2ccc(OCc3ccccc3)c(F)c2)c1` [A348, N-{3-[6-Amino-5-(4-benzyloxy-3-fluoro-phenyl)-pyrimidin-4-yloxy]-phenyl}-acrylamide], the IC50 is less than 0.1 µM.

In the case of `C=CC(=O)Nc1cccc(Oc2ncnc(N)c2-c2ccc(OCc3ccccc3)cc2F)c1` [A349, N-{3-[6-Amino-5-(4-benzyloxy-2-fluoro-phenyl)-pyrimidin-4-yloxy]-phenyl}-acrylamide], the IC50 was less than 0.1 µM.

As to `Nc1ncnc(Oc2cccc(NC(=O)CCl)c2)c1-c1ccc(OCc2ccccc2)cc1F` [A350, N-{3-(6-Amino-5-(4-benzyloxy-2-fluoro-phenyl)-pyrimidin-4-yloxy}-phenyl)-2-chloro-acetamide], the IC50 was less than 0.1 µM.

Regarding `Nc1ncnc(Oc2cccc(NC(=O)CCl)c2)c1-c1ccc(OCc2ccccc2)c(F)c1` [A351, N-{3-[6-Amino-5-(4-benzyloxy-3-fluoro-phenyl)-pyrimidin-4-yloxy]-phenyl}-2-chloro-acetamide], the 50% inhibitory concentration (IC50) was less than 0.1 µM.

Turning to `C=CC(=O)Nc1cccc(Oc2ncnc(N)c2-c2ccc(NC(=O)c3ccccc3)cc2)c1` [A352, N-{4-[4-(3-Acryloylamino-phenoxy)-6-amino-pyrimidin-5-yl]-phenyl}-benzamide], the IC50 was less than 0.1 µM.

A further experiment relates to PBMC. Description: Time Dependent PBMC IC50 assay. The format is cell-based.
Settings: not given
As for the experimental part: Compounds described by embodiments of the present invention were assayed using a time dependent PMBC assay.
In turn, `C=CC(=O)N[C@@H]1CCC[C@H](Nc2ncnc(N)c2-c2ccc(Oc3ccccc3)cc2)C1` (relative stereo) [A51, N-(cis-3-((6-amino-5-(4-phenoxyphenyl)pyrimidin-4-yl)amino)cyclohexyl)acrylamide] returned an IC50 of less than 1 µM.

The compound `C=CC(=O)N1CC[C@@H](Nc2ncnc(N)c2-c2ccc(Oc3ccccc3)cc2)C1` [A1, (R)-1-(3-((6-amino-5-(4-phenoxyphenyl)pyrimidin-4-yl)amino)pyrrolidin-1-yl)prop-2-en-1-one] returned an IC50 of less than 1 µM.

Take `C=CC(=O)N1CC[C@H](CNc2ncnc(N)c2-c2ccc(Oc3ccccc3)cc2)C1` [A4, (R)-1-(3-(((6-amino-5-(4-phenoxyphenyl)pyrimidin-4-yl)amino)methyl)pyrrolidin-1-yl)prop-2-en-1-one]: the IC50 is less than 1 µM.

Compound `C=CS(=O)(=O)N1CCC(CNc2ncnc(N)c2-c2ccc(Oc3ccccc3)cc2)CC1` [A10, 5-(4-phenoxyphenyl)-N4-((1-(vinylsulfonyl)piperidin-4-yl)methyl)pyrimidine-4,6-diamine] gave an IC50 of less than 1 µM.

In turn, `C=CC(=O)N1CC[C@H](COc2ncnc(N)c2-c2ccc(Oc3ccccc3)cc2)C1` [A26, (S)-1-(3-(((6-amino-5-(4-phenoxyphenyl)pyrimidin-4-yl)oxy)methyl)pyrrolidin-1-yl)prop-2-en-1-one] registered an IC50 of less than 1 µM.

Consider `C=CC(=O)N1CCC(CNc2ncnc(N)c2-c2ccc(Oc3cccc(F)c3)cc2)CC1` [A34, 1-(4-(((6-amino-5-(4-(3-fluorophenoxy)phenyl)pyrimidin-4-yl)amino)methyl)piperidin-1-yl)prop-2-en-1-one], for which the IC50 is less than 1 µM.

On to `C=CC(=O)N1CC[C@@H](COc2ncnc(N)c2-c2ccc(Oc3ccccc3)cc2)C1` [A38, (R)-1-(3-(((6-amino-5-(4-phenoxyphenyl)pyrimidin-4-yl)oxy)methyl)pyrrolidin-1-yl)prop-2-en-1-one], for which the IC50 is less than 1 µM.

Take `Nc1ncnc(NCC2CCN(C(=O)CCl)CC2)c1-c1ccc(Oc2ccccc2)cc1` [A45, 1-(4-(((6-amino-5-(4-phenoxyphenyl)pyrimidin-4-yl)amino)methyl)piperidin-1-yl)-2-chloroethanone]: the IC50 was less than 1 µM.

The compound `C=CC(=O)N1CC2(CC(Nc3ncnc(N)c3-c3ccc(Oc4ccccc4)cc3)C2)C1` [A124, 1-(6-((6-amino-5-(4-phenoxyphenyl)pyrimidin-4-yl)amino)-2-azaspiro[3.3]heptan-2-yl)prop-2-en-1-one] had an IC50 of less than 1 µM.

For the compound `C=CC(=O)N1CCC[C@@H](Nc2ncnc(N)c2-c2ccc(Oc3ccccc3)cc2)C1` [A247, (R)-1-(3-((6-amino-5-(4-phenoxyphenyl)pyrimidin-4-yl)amino)piperidin-1-yl)prop-2-en-1-one], the IC50 is less than 1 µM.

Take `C=CC(=O)N1CCC(CNc2ncnc(N)c2-c2ccc(Oc3ccccc3)cc2)CC1` [A250, 1-(4-(((6-amino-5-(4-phenoxyphenyl)pyrimidin-4-yl)amino)methyl)piperidin-1-yl)prop-2-en-1-one]: the IC50 is less than 1 µM.

`C=CC(=O)N1CCCC(Nc2ncnc(N)c2-c2ccc(Oc3ccccc3)cc2)C1` (stereo not shown) [A253, 1-(3-((6-amino-5-(4-phenoxyphenyl)pyrimidin-4-yl)amino)piperidin-1-yl)prop-2-en-1-one] displayed an IC50 of less than 1 µM.

The compound `C=CC(=O)Nc1cccc(Oc2ncncc2-c2ccc(Oc3ccccc3)cc2)c1` [A255, N-(3-((5-(4-phenoxyphenyl)pyrimidin-4-yl)oxy)phenyl)acrylamide] displayed an IC50 of less than 1 µM.
